# Patent US20260294880A1, “COMPOSITION FOR TREATING OTOTOXIC HEARING LOSS CAUSED BY AMINOGLYCOSIDE ANTIBIOTICS” (KYUNGPOOK NATIONAL UNIVERSITY INDUSTRY-ACADEMIC COOPERATION …, priority 2023, published 2026)
# What was measured:
# Format in all cases: cell-based, ICR mice
# [1] = tested on: inner hair cells (IHCs) and outer hair cells (OHCs) of the organ of Corti; assay: Phalloidin staining of stereocilia / hair cell morphology in organotypic cochlear explants; details: for relative severity of damage, OHC versus IHC / hair cell morphology / damage after antibiotic treatment: cochlear explants, no BC; for relative severity of damage, OHC versus IHC: 1.2 mM KM or 100 μM GM; for hair cell morphology / damage after antibiotic treatment: 1.2 mM KM, 3 mM AK or 100 μM GM
# Description: (§1) Three-day-old ICR (Institute for Cancer Research) mice were purchased from Hyochang Science (Daegu, South Korea) for […]. Dissected cochleae were cultured in high-glucose Dulbecco's Modified Eagle's Medium (DMEM; Hyclone, Logan, UT, USA) containing 10% fetal bovine serum (Hyclone) and ampicillin (10 μg/mL; Life Technologies, Carlsbad, CA, USA) at 37° C. in a humidified atmosphere in the presence of 5% CO2. After 16 hours of culture, cochleae were first treated with 0.1 μM or 1 μM BC for 1 hour, followed by addition of one of three aminoglycoside antibiotics (1.2 mM KM, 3 mM AK, or 100 μM GM) to the culture medium. BC concentrations were optimized for each aminoglycoside (0.1 μM for KM, 1 μM for AK and GM).
# (§2) To evaluate the morphology of inner hair cells (IHCs) and outer hair cells (OHCs) of the organ of Corti, the specimens were cultured for 48 hours and fixed with 4% paraformaldehyde (PFA, pH 7.4) in PBS for 15 minutes. After washing three times with PBS, a stereociliary bundle of explants was stained with Alexa Fluor 488-or 555-conjugated phalloidin (1:1,000; Invitrogen-Molecular Probes, Eugene, OR) in PBS for 1 hour at room temperature (RT). Specimens were mounted on glass slides using Fluoromount (Sigma-Aldrich, St. Louis, MO) and visualized using an Axio Imager A2 fluorescence microscope (Carl Zeiss, Oberkochen, Germany).
# [2] = tested on: IHCs and OHCs (cochlear hair cells); assay: Quantification of surviving hair cells with V-shaped stereocilia in cochlear explants; details: for IHC survival / cytotoxicity to IHC: 3 mM AK, 1.2 mM KM, 100 μM GM, no BC
# Description: as §1, §2
# [Example 5] Quantification of hair cells and statistical analysis For quantitative analysis of hair cell damage, IHCs and OHCs with intact v-shaped […] were individually counted along a 200 μm length of basilar membrane in the apical (30%), middle (50%), and basal (70%) regions of each cochlear probe. All experiments were performed independently at least three times.
# [3] = tested on: mitochondrial membrane potential of cochlear hair cells; assay: JC-1 assay of mitochondrial membrane potential in cochlear explants; details: for red/green fluorescence ratio (mitochondrial membrane potential) after antibiotic treatment: KM, AK, or GM only
# Description: as §1
# The cationic fluorescent dye MitoProbe™ JC-1 (Invitrogen-Molecular Probes) was used to measure the mitochondrial membrane potential. After 30 hours of culture, the specimens were washed with PBS and stained with JC-1 (2 μM) for 2 hours at 37° C. in the presence of 5% CO2 in a darkroom. The sensitivity of the JC-1 assay was verified by adding 50 μM carbonyl [COMPOUND LEFT OUT] 3-chlorophenylhydrazone (CCCP) to untreated specimens before JC-1 staining, and then the specimens were cultured at 37° C. in the presence of 5% CO2 for 5 minutes for activation of CCCP. JC-1 fluorescence was split into red and green, and then the segmented images were converted to grayscale, followed by evaluation using ImageJ software (http://imageJ.nih.gov/ij/).
# [4] = tested on: cells of the organ of Corti; assay: TUNEL assay of apoptotic DNA fragmentation in cochlear explants; details: for apoptotic DNA fragmentation / cell death induced by antibiotic: KM, AK, or GM in mouse cochlea, no BC
# Description: as §1
# To detect DNA fragmentation leading to cell death, a TUNEL assay kit (Promega, Madison, WI) was used according to the manufacturer's protocol. Specimens were fixed with 4% paraformaldehyde in PBS for 15 minutes at room temperature (RT) and treated with 0.1% PBS-Tx in 0.1% sodium citrate for 30 minutes at 37° C. Fragmented DNA from cells was stained using TUNEL working solution at 37° C. for 30 minutes. F-actin was labeled with Alexa Fluor 555-conjugated phalloidin in PBS-Tx for 3 hours at room temperature (RT) in the dark and visualized using a Zeiss Axio Imager A2 fluorescence microscope.
# [5] = tested on: cleaved caspase-3 in organ of Corti; assay: Immunohistochemistry for cleaved (active) caspase-3 in cochlear explants; details: for level of cleaved caspase-3 after antibiotic treatment: KM, AK, or GM versus untreated controls, no BC
# Description: as §1
# Immunohistochemistry and TUNEL assay for active caspase-3 were used to determine whether cell death in the organ of Corti occurred by apoptosis. Specimens were fixed with 4% PFA, kept permeabilized with 0.1% Triton X-100 in PBS (PBS-Tx) for 30 minutes at room temperature (RT), blocked with 5% normal goat serum for 1 hour at room temperature (RT), and cultured overnight with anti-caspase-3 antibody (1:1,000; Cell Signaling Technology, Bevery, MA) diluted in blocking solution.
# [6] = tested on: mitochondrial reactive oxygen species (ROS) in cochlear hair cells; assay: MitoSOX Red assay of mitochondrial ROS in cochlear explants
# Description: as §1
# To analyze AK or KM-induced mitochondrial oxidative stress, cochlear explants were examined by MitoSOX Red assay and JC-1 assay. Levels of mitochondrial reactive oxygen species (ROS) were detected by staining with 5 μM MitoSOX Red (Invitrogen-Molecular Probes) for 5 minutes in a humidified atmosphere at 37° C. in the presence of 5% CO2. The specimen was washed with PBS and visualized using a Zeiss Axio Imager A2 fluorescence microscope.
Compound,"relative severity of damage, OHC versus IHC [1]",hair cell morphology / damage after antibiotic treatment [1],IHC survival / cytotoxicity to IHC [2],red/green fluorescence ratio (mitochondrial membrane potential) after antibiotic treatment ([3]; JC-1),apoptotic DNA fragmentation / cell death induced by antibiotic [4],level of cleaved caspase-3 after antibiotic treatment [5],"protection against stereocilia degeneration and hair cell loss ([1]; 0.1 or 1 μM BC for 1 hour before antibiotic (KM, AK, or GM), apical, middle, basal regions)","reduction of antibiotic-induced hair cell damage (surviving hair cells) ([2]; BC pretreatment (0.1 μM for KM, 1 μM for AK and GM), IHC and OHC, apical, middle and basal turns)","cytotoxicity of BC to IHC and OHC ([2]; BC, cochlear explants)","red/green fluorescence ratio (mitochondrial membrane potential) with BC ([3]; BC pretreatment, then KM, AK or GM, JC-1, n=3 per group, *P<0.05 and **P<0.01)","statistical significance of protective effect on mitochondrial membrane potential ([3]; BC pretreatment, then KM, AK or GM, n=3 per group, *P<0.05 and **P<0.01)","reduction of apoptotic DNA fragmentation (TUNEL labeling) ([4]; BC pretreatment compared with KM, AK, or GM treatment)","reduction of cleaved caspase-3 ([5]; BC pre-treatment before antibiotics (KM, AK, GM))","decrease of MitoSOX Red fluorescence intensity (mitochondrial ROS) ([6]; BC pretreatment, then KM, AK or GM)","statistical significance of reduced integrated density of red fluorescence ([6]; BC treatment group versus AK, KM, and GM groups)"
"NC[C@H]1O[C@H](O[C@H]2[C@H](O)[C@@H](O[C@H]3O[C@H](CO)[C@@H](O)[C@H](N)[C@H]3O)[C@H](N)C[C@@H]2N)[C@H](O)[C@@H](O)[C@@H]1O [KM, kanamycin]",more severe in OHC than in IHC,"not only altered the ciliary morphology of hair cells but also disrupted cell arrangement, with induction of cell loss in a complex manner",more resistant,significant decrease in the red/green ratio along with a loss of red signal,resulted in cell death,significantly increased levels of cleaved caspase-3 compared to untreated controls,–,–,–,–,–,–,–,–,–
gentamicin [GM],"caused more severe damage to OHCs than IHCs, with loss of hair cells",–,more resistant,significant decrease in the red/green ratio along with a loss of red signal,resulted in cell death,significantly increased levels of cleaved caspase-3 compared to untreated controls,–,–,–,–,–,–,–,–,–
"COc1ccc2cc3[n+](cc2c1OC)CCc1cc2c(cc1-3)OCO2 [BC, berberine chloride]",–,–,–,–,–,–,alleviated stereocilia degeneration and hair cell loss in all cochlear regions,antibiotic-induced damage was reduced to near-normal levels,no detrimental effects on IHC or OHC,red/green fluorescence ratio was found to increase,statistically significant,significant reduction by BC pretreatment to near control levels,reduced cleaved caspase-3,significant decrease in fluorescence intensity,"statistically significant compared to the AK, KM, and GM groups"
"NCC[C@H](O)C(=O)N[C@@H]1C[C@H](N)[C@@H](O[C@H]2O[C@H](CN)[C@@H](O)[C@H](O)[C@H]2O)[C@H](O)[C@H]1O[C@H]1O[C@H](CO)[C@@H](O)[C@H](N)[C@H]1O [AK, amikacin]",–,"most of their cilia disintegrated and lost, making them unrecognizable",virtually destroyed,significant decrease in the red/green ratio along with a loss of red signal,resulted in cell death,significantly increased levels of cleaved caspase-3 compared to untreated controls,–,–,–,–,–,–,–,–,–
